From patent US20200131123A1, “INDOLE-FORMAMIDE DERIVATIVE, PREPARATION METHOD THEREFOR AND USE THEREOF IN MEDICINE” (Jiangsu Hengrui Medicine Co., Ltd., priority 2017, published 2020) come the findings set out here.

Usually pEC50 stands for the negative decadic logarithm of the EC50, by convention in mol/L. In general, Emax refers to the greatest response seen or fitted, relative to the assay's reference. The term AUC denotes the area under the concentration-time curve, a measure of exposure. Broadly, the MRT is a mean duration of stay, worked out from the concentration-time curve.

pEC50: −log10 of the molar value.

The test system of data set [1] is IL-17A. Kind of data set: IL-17A enzyme-linked immune quantitative assay in cytostim-activated human PBMC. In kind it is cell-based. Conditions: 72 h; IL-17A in supernatant of human PBMC, 3 days after drug treatment. Here is the method:
1. Human peripheral blood mononuclear cells (PBMC) (Zenbio)
5. Human IL-17 enzyme-linked immunosorbent kit (R&D System)
Frozen human peripheral blood mononuclear cells (PBMC) were rapidly resuscitated in pre-warmed lymphocyte culture medium, and centrifuged at 1000 rpm for 10 min. The cell culture supernatant was removed. The cells were gently suspended in TexMACS medium and counted. The T cell activation reagent cytostim (10 μl/ml) was added in proportion to the cell suspension. Then, the cells were seeded in a 96-well cell culture plate at a density of 1×10^5 peripheral blood mononuclear cells/well. The test compounds were diluted in gradient with TexMACS medium, and added respectively to the test wells, with 2-3 parallel wells per group. A negative control well containing only cells without cytostim was provided to obtain the background reading. The cell culture plate was placed in a incubator at 5% carbon dioxide, 37° C. to incubate for 3 days. The cell culture supernatant was collected 3 days after drug treatment, and centrifuged to remove the suspension. Then, IL-17A in the supernatant was quantified with IL-17A enzyme-linked immunosorbent kit. EC50 values of the test compounds were calculated with GraphPad Prism 6.0.

Data set [2] in a line: Pharmacokinetics assay in mice after intragastrical administration. In kind it is in vivo. Conditions: female, C57, mouse, plasma, po, 2 mg/kg. The method, then:
Mice were used as test animals. The drug concentration in plasma at different time points was determined by LC/MS/MS method after intragastrical administration of the compound of Example 4 to mice. The pharmacokinetic behavior of the compound of the present invention was studied and evaluated in mice. A group of nine C57 mice (female) were purchased from Shanghai Jiesijie Laboratory Animal Co., LTD, with Certificate No.: SCXK (Shanghai) 2013-0006. A certain amount of the test compound was weighed, and added with 5% by volume of DMSO, 5% by volume of tween 80 and 90% by volume of normal saline to prepare a 0.1 mg/mL colorless, clear and transparent solution. […] The samples were stored in heparinized tubes, and centrifuged for 10 minutes at 3500 rpm to separate the blood plasma. The plasma samples were stored at −20° C. The content of the test compound in the plasma of mice after intragastrical administration of the test compound at different concentrations was determined: 25 μL of mouse plasma at each time after administration was taken, added with 80 μL of the internal standard solution of camptothecin (100 ng/mL) and 200 μL of acetonitrile, vortex-mixed for 5 minutes, and centrifuged for 10 minutes (3600 rpm). 1 μL of the supernatant was taken from the plasma samples for LC/MS/MS analysis.

The test system of data set [3] is MC38 colorectal tumor. Kind of data set: Efficacy in isotype MC38 colorectal tumor mice model. The format is in vivo, C57BL/6 mice. Here is the method: The inhibition effect of the compound of Example 4 on MC38 tumor growth was evaluated in MC38 mice model.
Experimental female C57BL/6 mice were purchased from Charles River Lab (U.S.A.). The mice weighed 20-25 gram, and were 7-9 weeks old when purchased. The mice (10 mice per cage) were maintained in a constant temperature of 23+1° C., and a humidity of 50-60%, and free access to food and water. The mice were treated and used in accordance with the Institutional Animal Care and Use Committee (IACUC approved guidelines). After the animals were purchased, the test was started after 7 days of adaptive feeding.
Female C57BL/6 mice (20-25 gram, 7-9 weeks old) were used in the experiment. In vivo antitumor activity of the compound of Example 4 administered alone or the compound of Example 4 administered in combination with anti-mouse PD-1 antibody was evaluated by detecting the growth of isotype MC38 colorectal tumor (Synta Pharmaceuticals) in inbred C57BL/6 mice. 500,000 (5×10^5) MC38 cells were implanted subcutaneously in the right abdomen of each mouse. After 5 days, when the tumor grew to 40-80 mm^3, the mice were grouped randomly. The compound of Example 4 (30 mg/kg) was administered twice a day for 21 consecutive days. During the treatment experiment in which the antibody was administered alone or in combination with the compound of Example 4, anti-mouse PD-1 (CD279) antibody (BioXcell) (5 mg/kg) was intraperitoneally injected (i.p.) to the mice bearing MC38 tumor fixedly on Day 5, 8, 11 and 14. The control group was administered with the vehicle CMC-Na drug formulation and the IgG2a isotype control antibody.
The tumor volume was measured with a caliper in three dimensions, and then calculated according to the following formula: tumor volume (mm^3)=l×w×h×0.5236, wherein 1 represents the length of the tumor, w represents the width of the tumor, and h represents the height of the tumor, in millimeters. Tumor growth inhibition rate TGI %=100×(TVcontrol−TVtumor)/(TVcontrol−TVinitial), wherein TVcontrol=the tumor volume of the control group; TVtumor=the tumor volume of the treatment group; and TVinitial=the initial tumor volume on Day 5.

Where [4] appears, read: 30 mg/kg in combination with anti-mouse PD-1 monoclonal antibody (5 mg/kg).

With `CCS(=O)(=O)c1ccc([C@H](CO)NC(=O)c2ccc3c(c2)cc(Cc2ccc(Cl)cc2C(F)(F)F)n3CCF)cc1` [Example 4, (R)-2-(4-Chloro-2-(trifluoromethyl)benzyl)-N-(1-(4-(ethylsulfonyl)phenyl)-2-hydroxyethyl)-1-(2-fluoroethyl)-1H-indole-5-carboxamide], in data set [1], the pEC50 was 7.07 and the Emax worked out at 93%. Further, the Vd/F in data set [2] (read-out: Apparent distribution volume Vz/F) amounted to 0.637 L/kg. Further, the AUC in data set [2] (read-out: Area under curve AUC) came to 50600 ng·h/mL. Besides, the CL/F in data set [2] (read-out: Clearance CLz/F) amounted to 0.66 mL/min/kg. Besides, the half-life in data set [2] (read-out: Half-life T1/2 (converted)) was 672 min. Besides, the Cmax in data set [2] (read-out: Plasma concentration Cmax) amounted to 3660 ng/mL. Further, the MRT in data set [2] (read-out: Residence time MRT) worked out at 15.5 h. The “TGI (tumor growth inhibition rate)” value in data set [3] (30 mg/kg administered alone, oral, twice a day for 21 days) came out at 40%. For the same molecule, in data set [3] (setting [4]), the “Effect of combined administration with PD-1 antibody” value is listed as “synergistic effect” and the “TGI (tumor growth inhibition rate)” value was 63%. In addition, the Antitumor activity entry in data set [3] (administered alone) is “exhibits an antitumor activity”.
